Legend:
human PAECs = assay: Leukocyte and monocyte adhesion to an endothelial monolayer; type: cell-based
Method: Leukocyte and monocyte adhesion assays: Immune activation of the endothelium was assessed by measuring the adhesion of immune cells to an endothelial monolayer. Human PAECs were cultured until a complete monolayer was formed. Immune cells were stained with either CellTrace™ Blue or CFSE (ThermoFisher; Blue, C34568; CFSE, C34554) per the manufacturer's protocol. Between […] stained immune cells were added to each well of a six-well plate and allowed to incubate for 24 hours. Wells were then rinsed two times with PBS and subsequently fixed with 4% PFA for 15 minutes at room temperature. After fixation, the cells were rinsed once more with PBS. Fluorescent images were acquired at 4× magnification for each well. Immune cell number per image was quantified using Fiji. For the leukocyte adhesion assay, HuT 78 cutaneous T lymphocytes were used (ATCC). For the monocyte adhesion assay, THP-1 peripheral blood monocytes were used (ATCC).

VCAM1 = VCAM1 expression by RT-qPCR and immunoblot in PAECs; type: cell-based, human
Method: (§1) RNA extraction and quantitative polymerase chain reaction: Cells were lysed in QIAzol Lysis Reagent (Qiagen; 79306), and RNA was extracted using the Rnaeasy Kit (Qiagen; 74004). Complementary DNA was synthesized using the High-Capacity cDNA Reverse Transcription Kit (ThermoFisher; 4368813). Quantitative real-time PCR (RT-qPCR) was performed on an Applied Biosystems QuantStudio 6 Flex Real-Time PCR instrument.
(§2) Target gene expression was normalized to a housekeeping gene (i.e., ACTB) and fold change was calculated using the […] method. TaqMan™ Universal PCR Master Mix (ThermoFisher; 4305719) was used with TaqMan primers (Table 1). PowerUp™ SYBR^TM Green Master Mix (ThermoFisher; A25742) was used with custom designed primers (Table 2).
Protein extraction and immunoblotting: Cells were rinsed two times with PBS before collection in RIPA buffer containing protease and phosphatase inhibitors. Protein concentration was determined using the Pierce™ BCA Protein Assay Kit (ThermoFisher; 23225). Protein lysates were separated using 4-15% Mini-PROTEAN® TGX™ Precast Protein Gels (Bio-Rad Laboratories; 4561086) and subsequently transferred onto a PVDF membrane. Membranes were blocked with 5% BSA in Tris-buffered saline with 0.1% Tween 20 (TBST) for one hour at room temperature. Primary antibodies were subsequently added and incubated at 4° C. overnight (Table 3). The next day blots were washed three times for 10 minutes each with TBST. Blots were then incubated with the appropriate secondary antibody coupled to HRP for one hour at room temperature. After another round of TBST washing, blots were visualized using Pierce ECL reagents and images were captured using the BioRad ChemiDoc XRS+.
Application of oxysterols and bile acids: Oxysterols and bile acids were applied to human PAECs in 0.1% FBS, cell-specific media. 25-hydroxycholesterol and 7HOCA were dissolved in 100% ethanol and applied to cells at a concentration of 25 μM or 50 μM for 24 hours, respectively.

[1] = tested on: chronically hypoxic mouse model; settings: 10 mg/kg orotracheal, four weeks hypoxia
[2] = tested on: BA.2 spike pseudotyped virus; type: cell-based
[3] = tested on: monocrotaline PAH rat model; settings: 7.5 mg/kg i.p. for 10 days
CH25H = CH25H expression via RT-qPCR in PAECs under IL-1β; type: cell-based, human
Method: as §1, §2

[4] = target: ATP6V1B2-NCOA7 interactions (Homo sapiens, UniProt Q8NI08); assay: Proximity ligation assay of ATP6V1B2-NCOA7 interactions in human PAECs; type: cell-based; settings: 958ami versus DMSO
Method: Proximity ligation assay: Direct interaction of NCOA7 with the V-ATPase subunit ATP6V1B2 was assessed using the Duolink® Proximity Ligation Assay (Millipore Sigma; DU092102). Human PAECs were plated in a Nunc™ Lab-Tek™ II Chamber Slide™ System (20,000 per well; ThermoFisher; 154453) and then fixed with 4% paraformaldehyde for 15 minutes. After permeabilization and blocking per the manufacturer's protocol, wells were incubated with either mouse anti-NCOA7 antibody (Santa Cruz Biotechnology; sc-393427), rabbit anti-ATP6V1B2 antibody (abcam; ab73404), both antibodies, or neither antibodies overnight at 4° C. (Table 3). Cells were then incubated with the PLUS and MINUS probes for one hour, ligated for 30 minutes, and amplified for 100 minutes at 37° C. Slides were then mounted with ProLong™ Gold Antifade Mountant with DAPI (ThermoFisher; P36935). Images were acquired on a Nikon A1 Confocal Microscope at the Center for Biologic Imaging at the University of Pittsburgh.

NCOA7 [5] = target: T1, NCOA7 (Homo sapiens, UniProt Q8NI08); assay: Initial experimental validation of top scoring virtual screening compounds; settings: preliminary data
T1 sequence (Q8NI08 1-942): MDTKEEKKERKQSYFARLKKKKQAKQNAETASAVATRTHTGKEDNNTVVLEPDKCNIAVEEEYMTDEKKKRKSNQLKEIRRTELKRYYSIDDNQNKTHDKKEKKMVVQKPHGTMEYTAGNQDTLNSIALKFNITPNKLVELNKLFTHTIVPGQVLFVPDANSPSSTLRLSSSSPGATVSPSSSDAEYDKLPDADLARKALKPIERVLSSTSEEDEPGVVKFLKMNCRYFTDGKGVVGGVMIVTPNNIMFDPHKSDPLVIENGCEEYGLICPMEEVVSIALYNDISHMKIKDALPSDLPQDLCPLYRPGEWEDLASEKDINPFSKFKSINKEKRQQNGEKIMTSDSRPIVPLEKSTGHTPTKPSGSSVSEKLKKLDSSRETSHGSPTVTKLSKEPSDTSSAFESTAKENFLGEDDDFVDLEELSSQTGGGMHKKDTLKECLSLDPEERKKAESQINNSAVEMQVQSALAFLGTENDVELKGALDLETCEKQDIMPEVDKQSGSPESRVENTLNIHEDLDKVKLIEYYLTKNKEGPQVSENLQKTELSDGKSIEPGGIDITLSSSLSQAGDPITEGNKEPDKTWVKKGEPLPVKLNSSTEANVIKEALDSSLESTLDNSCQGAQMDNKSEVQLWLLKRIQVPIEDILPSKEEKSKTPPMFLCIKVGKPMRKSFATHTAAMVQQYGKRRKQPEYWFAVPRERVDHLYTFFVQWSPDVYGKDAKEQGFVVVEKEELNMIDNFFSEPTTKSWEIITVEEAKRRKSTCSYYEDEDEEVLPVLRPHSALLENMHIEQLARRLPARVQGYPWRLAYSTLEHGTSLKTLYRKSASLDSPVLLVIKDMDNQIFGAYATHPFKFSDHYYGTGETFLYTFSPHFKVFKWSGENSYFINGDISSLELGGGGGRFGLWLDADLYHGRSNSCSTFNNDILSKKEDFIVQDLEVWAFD
From the text: Pharmacophore modeling: Using Pharmmaker, we identified the residues involved in high affinity interactions with each molecular probe type. The residue-probe interactions were subsequently rank-ordered based on their frequency of occurrence at the druggable hot spots in multiple runs. […] The pharmacophore model contained a hydrogen bond donor and a hydrophobic feature at the isopropylamine site and hydrophobic and aromatic rings at the two benzene sites. The pharmacophore model was then screened against the ZINC and MolPort libraries using Pharmit. The MolPort library contains 67,033,884 conformers corresponding to 4,848,718 compounds, and the ZINC library contains 122,276,899 conformers of 13,127,550 compounds. Among top-scoring compounds, MolPort-004-267-958 was selected for further refinement after initial experimental validation.

Klebsiella pneumoniae = assay: Mice infected with Klebsiella pneumoniae, acute lung injury; type: in vivo, mouse; settings: 5 mg/kg IP daily for 3 days
Method: Mice were infected with Klebsiella pneumoniae. […] (FIG. 23 (A, B)) Representative images were prepared of lung tissue sections stained with H&E after 48 hours of intratracheal infection with K. pneumoniae in mice treated with DMSO compared to 958 (5 mg/kg IP dosing daily for 3 days).

coronavirus = settings: mouse, in vivo
NCOA7 [6] = assay: IL-1β-mediated upregulation of NCOA7 in ECs; type: cell-based; settings: inhibition of STAT1/2 signaling
[7] = 25 μM for 24 hours versus ethanol

ATP6V1B2-NCOA7 interactions, sequence (P21281 whole entry partner, one chain of several): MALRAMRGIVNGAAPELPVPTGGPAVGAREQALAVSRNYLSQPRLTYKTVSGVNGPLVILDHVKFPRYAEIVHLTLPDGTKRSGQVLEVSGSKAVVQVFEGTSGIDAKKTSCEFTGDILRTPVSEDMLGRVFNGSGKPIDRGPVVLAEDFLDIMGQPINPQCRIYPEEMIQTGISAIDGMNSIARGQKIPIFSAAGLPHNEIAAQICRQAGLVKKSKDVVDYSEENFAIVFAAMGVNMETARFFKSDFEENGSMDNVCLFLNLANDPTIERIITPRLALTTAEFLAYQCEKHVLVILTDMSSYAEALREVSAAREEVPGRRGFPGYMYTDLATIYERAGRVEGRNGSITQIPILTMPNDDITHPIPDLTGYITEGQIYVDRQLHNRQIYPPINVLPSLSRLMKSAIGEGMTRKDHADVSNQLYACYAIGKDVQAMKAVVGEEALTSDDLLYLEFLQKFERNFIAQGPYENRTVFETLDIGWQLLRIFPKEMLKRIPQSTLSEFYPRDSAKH

Question: How did the “adhesion of leukocytes and monocytes to a PAEC monolayer” value (human PAECs; 7HOCA-treated PAECs versus ethanol control) turn out when CC(CCC[C@@H](C)[C@H]1CC[C@H]2[C@@H]3[C@H](O)CC4=CC(=O)CC[C@]4(C)[C@H]3CC[C@]12C)C(=O)O (stereo partly drawn) [7HOCA, 7α-hydroxy-3-oxo-4-cholestenoic acid] was run?
Answer: promoting adhesion

Question: What about the VCAM1 expression (VCAM1; 7HOCA 50 μM for 24 hours versus ethanol control) of the same molecule?
Answer: significantly upregulated

Question: What about the “CD11b+ monocyte infiltration into the vascular bed” value [1] of the same molecule?
Answer: enhanced

Question: And the RVSP [1]?
Answer: increased

Question: And the “VCAM1 expression in pulmonary vessels” value [1]?
Answer: enhanced

Question: What about the pulmonary arteriolar remodeling [1] of the same molecule?
Answer: increased

Question: Which “immune cell adhesion to a PAEC monolayer” value (human PAECs; [7]) does the source give for C[C@H](CCCC(C)(C)O)[C@H]1CC[C@H]2[C@@H]3CC=C4C[C@@H](O)CC[C@]4(C)[C@H]3CC[C@]12C [25HC, 25-hydroxycholesterol] here?
Answer: enhanced immune cell adhesion

Question: What about the VCAM1 expression (VCAM1; [7]) of the same molecule?
Answer: similarly upregulated VCAM1

Question: With O=C(NCc1cc(=O)oc2cc(O)c(O)cc12)c1nn(-c2ccccc2)c(=O)c2ccccc12 [958ami] as the molecule, how does the “EC immunoactivation as noted by immune cell adhesion to a monolayer” value (human PAECs; 958ami-treated PAECs versus DMSO) read?
Answer: decreased EC immunoactivation

Question: And the “EC immunoactivation as noted by VCAM1 expression” value (VCAM1; 958ami 20 μM for 24 hours versus DMSO)?
Answer: decreased EC immunoactivation

Question: And the “BA.2 spike pseudotyped virus infection” value [2]?
Answer: decrease

Question: What about the “CD11b+ monocyte infiltration at the pulmonary vessel” value [3] of the same molecule?
Answer: attenuation

Question: What about the “CH25H expression in pulmonary vessels” value [3] of the same molecule?
Answer: decreased CH25H expression

Question: And the RVSP [3]?
Answer: significant reduction

Question: What about the “VCAM1 expression at the endothelium” value [3] of the same molecule?
Answer: attenuation

Question: And the pulmonary vessel muscularization [3]?
Answer: decreased muscularization

Question: And the “right ventricular hypertrophy (Fulton's Index)” value [3]?
Answer: significant reduction

Question: And the “hepatic or renal toxicity” value ([3]; versus vehicle)?
Answer: neither had appreciable hepatic or renal toxicity

Question: What about the CH25H induction (CH25H) of the same molecule?
Answer: prevented induction of CH25H

Question: And the “number of amplifications per cell (ATP6V1B2-NCOA7 interactions)” value [4]?
Answer: significantly induced

Question: Which results are given for O=C(OCc1cc(=O)oc2cc(O)c(O)cc12)c1nn(-c2ccccc2)c(=O)c2ccccc12 [compound 958]?
Answer: effect on NCOA7 relative to the other predicted compounds (NCOA7 [5]): activator of NCOA7; BA.2 spike pseudotyped virus infection [2]: decrease; inflammation by ELISA on lung homogenate of IL-1β, TNF-α, and IL-6 (Klebsiella pneumoniae): decreased inflammation; acute lung injury (Klebsiella pneumoniae; H&E after 48 hours of intratracheal infection): improvement of acute lung injury; mortality (coronavirus): significantly improved mortality; proinflammatory markers (IL-1α, IL-1β, IFN-γ, VCAM1, and ICAM1) in lung tissue (coronavirus): attenuation; viral load in lung tissue (coronavirus): decreased viral load

Question: N#CCNC(=O)c1ccc(-c2ccnc(Nc3ccc(N4CCOCC4)cc3)n2)cc1 [momelotinib] was tested. Which “IL-1β-mediated upregulation of NCOA7” value (NCOA7 [6]) did it give?
Answer: abrogated
